Source: US8901118B2, “Compounds and methods for kinase modulation, and indications therefor” (Plexxikon Inc., priority 2010, dated 2014)

Legend:
CYP3A4(BQ) = CYP3A4(BQ) (Homo sapiens, UniProt P08684); experiment: CYP3A4(BQ) inhibition; assay type: in vitro ADME; conditions: CYP3A4, substrate BQ; read-out: Cyp IC50 3A4(BQ)
How it was run: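 Inhibition of human CYP3A4 (BQ substrate) was measured by fluorescence, since blocking metabolism of a known substrate lowers the fluorescent product signal. Compounds dissolved in DMSO at 100 mM were diluted into acetonitrile and then into NADPH regeneration cofactor mix, serially diluted 1:1 across 10 points, and preincubated in 384 well plates for 10 minutes at 37° C.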

MV-4-11 cells = experiment: MV-4-11 (leukemia) cell proliferation assay (ATPlite); assay type: cell-based; conditions: Homo sapiens, MV4-11, read-out: Inhibition of Cell Proliferation IC50, MV-4-11
Method: Compounds are assessed in a variety of cell based assays. For example BaF3 cells engineered with any of BCR-FMS, BCR-KIT, BCR-FLT3, BCR-NTRK1, BCR-NTRK2, and BCR-NTRK3, are used in cell proliferation assays to assess inhibitory activity of Fms, Kit, Flt-3, TrkA, TrkB, and TrkC, respectively. An MV-4-11 (leukemia) cell proliferation assay is used to assess inhibitory activity in Flt-3, and SKNSH (human neuroblastoma) cell proliferation assay is used to assess efficacy of Fms/Trk inhibitors. Additional cells may be assayed similarly to assess the efficacy of Fms/Trk inhibitors, such as MiaPaCa (human pancreatic cancer) and Capan-1 (human pancreatic carcinoma) cells. Reagent and assay conditions are as follows: • BaF3 cells: • Maintained in RPMI containing 10% FBS, 1% PenStrep, 1% NEAA, and 1% L-Glutamine, supplemented with 1 mg/mL G418 and 5% WEHI-CM (or recombinant murine IL-3). • Confluent cells are split 1:50 to 1:100 every 3-4 days. • MV-4-11 cells: • Maintained in Iscove's Modified Dulbecco's Medium containing 10% FBS. • Confluent cells are split 1:4 every 3-4 days. • SKNSH cells: RPMI containing 10% FBS. On day 1, cells are counted, then centrifuged in a conical tube for 5 minutes at 1000 rpm. The supernatant is removed and cells are re-suspended as follows: • BaF3: resuspend in growth media +1 mg/mL G418 (without WEHFIL-3) to 2×10^5 cells/mL. • MV-4-11: resuspend in growth media to 5×10^5 cells/mL. • SKNSH: resuspend in growth media to 2×10^4 cells/mL. The cells are plated (50 μL, 150 μL for SKNSH cells) in each well of a 96-well dish (Corning 3610) and incubated at 37° C. in 5% CO2 overnight, cells plated to a final concentration of cells as follows: • BaF3: 10,000 cells per well. • MV-4-11: 25,000 cells per well. • SKNSH: 3,000 cells per well. On day 2, compound at a maximum concentration of 5 mM is serially diluted 1:3 for a total of 8 point titration with DMSO as a control. A 1 μL aliquot of each dilution point is added to 249 μL growth media and 50 μL is added to a well containing cells, providing 10 μM compound for the maximum concentration point. The cells are incubated for 3 days at 37° C. in 5% CO2. For SKNSH cells, a 0.75 μL aliquot of appropriate dilution in DMSO is added to 150 μL of cells. On day 5, ATPlite 1 step Luminescence Assay System (Perkin Elmer #6016739) is brought to room temperature along with the cell cultures. ATPlite is added to each well as follows: • BaF3: 25 μL per well. • MV-4-11: 40 μL per well. • SKNSH: 20 μL per well. The cells are incubated at room temperature for 10 minutes, then luminescence is read on Safire reader. The measured luminescence correlates directly with cell number, such that the reading as a function of compound concentration is used to determine the IC50 value.
It is understood that the results of these assays may vary as assay conditions are varied. Inhibition levels determined under the conditions described herein represent a relative activity for the compounds tested under the specific conditions employed. The cell based assays are likely to show variability due to the complexity of the system and the sensitivity thereof to any changes in the assay conditions. […] Results for compounds that are tested and show substantially no inhibition below the highest tested concentration are represented as “-” in the tables below. In some instances, the compounds were not tested in all of the assays, or assay results were not valid, as indicated by NA in the tables below.

Sequence of CYP3A4(BQ) (P08684 whole entry): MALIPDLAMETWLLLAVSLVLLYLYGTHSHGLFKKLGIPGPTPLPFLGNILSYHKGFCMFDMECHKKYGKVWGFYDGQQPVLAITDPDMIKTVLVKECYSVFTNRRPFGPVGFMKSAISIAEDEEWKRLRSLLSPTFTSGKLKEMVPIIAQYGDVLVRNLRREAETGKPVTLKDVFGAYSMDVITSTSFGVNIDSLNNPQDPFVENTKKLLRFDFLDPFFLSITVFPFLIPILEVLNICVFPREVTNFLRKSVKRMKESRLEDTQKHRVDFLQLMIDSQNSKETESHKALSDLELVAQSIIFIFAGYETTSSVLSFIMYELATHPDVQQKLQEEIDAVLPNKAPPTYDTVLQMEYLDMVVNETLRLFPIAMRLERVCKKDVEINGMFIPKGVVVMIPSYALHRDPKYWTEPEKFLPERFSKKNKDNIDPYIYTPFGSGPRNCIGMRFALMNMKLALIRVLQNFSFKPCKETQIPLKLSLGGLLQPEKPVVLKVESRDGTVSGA

SMILES | IC50 (CYP3A4(BQ)) | IC50 (MV-4-11 cells)
COc1ccc(Nc2ccc(Cc3c[nH]c4ncnc(OC)c34)c(F)n2)cn1 [Compound P-4001, [6-Fluoro-5-(4-methoxy-7H-pyrrolo[2,3-d]pyrimidin-5-ylmethyl)-pyridin-2-yl]-(6-methoxy-pyridin-3-yl)-amine] | – | < 1 µM
COc1ncnc2[nH]cc(Cc3ccc(Nc4ccc(C5CC5)nc4)nc3F)c12 [Compound P-4004, (6-Cyclopropyl-pyridin-3-yl)-[6-fluoro-5-(4-methoxy-7H-pyrrolo[2,3-d]pyrimidin-5-ylmethyl)-pyridin-2-yl]-amine] | > 10 µM | < 1 µM
CCOc1ccc(Nc2ccc(C(=O)c3c[nH]c4ncnc(OC)c34)c(F)n2)cn1 [Compound P-4024, [6-(6-Ethoxy-pyridin-3-ylamino)-2-fluoro-pyridin-3-yl]-(4-methoxy-7H-pyrrolo[2,3-d]pyrimidin-5-yl)-methanone] | > 10 µM | –
CCOc1ncnc2[nH]cc(C(=O)c3ccc(Nc4ccc(OC)nc4)nc3F)c12 [Compound P-4025, (4-Ethoxy-7H-pyrrolo[2,3-d]pyrimidin-5-yl)-[2-fluoro-6-(6-methoxy-pyridin-3-ylamino)-pyridin-3-yl]-methanone] | > 10 µM | –
CCc1ccc(Nc2ccc(Cc3c[nH]c4ncnc(C5CC5)c34)c(F)n2)cn1 [Compound P-4028, [5-(4-Cyclopropyl-7H-pyrrolo[2,3-d]pyrimidin-5-ylmethyl)-6-fluoro-pyridin-2-yl]-(6-ethyl-pyridin-3-yl)-amine] | > 10 µM | –
CCc1ccc(Nc2ccc(C(=O)c3c[nH]c4ncnc(C5CC5)c34)c(F)n2)cn1 [Compound P-4029, (4-Cyclopropyl-7H-pyrrolo[2,3-d]pyrimidin-5-yl)-[6-(6-ethyl-pyridin-3-ylamino)-2-fluoro-pyridin-3-yl]-methanone] | > 10 µM | –
Cc1ccc(Nc2ccc(C(=O)c3c[nH]c4ncnc(C5CC5)c34)c(F)n2)cn1 [Compound P-4031, (4-Cyclopropyl-7H-pyrrolo[2,3-d]pyrimidin-5-yl)-[2-fluoro-6-(6-methyl-pyridin-3-ylamino)-pyridin-3-yl]-methanone] | > 10 µM | –
CCn1cc(Nc2ccc(Cc3c[nH]c4ncnc(C5CC5)c34)c(F)n2)cn1 [Compound P-4036, [5-(4-Cyclopropyl-7H-pyrrolo[2,3-d]pyrimidin-5-ylmethyl)-6-fluoro-pyridin-2-yl]-(1-ethyl-1H-pyrazol-4-yl)-amine] | 5 to 10 µM | –
CCn1cc(Nc2ccc(C(=O)c3c[nH]c4ncnc(C5CC5)c34)c(F)n2)cn1 [Compound P-4037, (4-Cyclopropyl-7H-pyrrolo[2,3-d]pyrimidin-5-yl)-[6-(1-ethyl-1H-pyrazol-4-ylamino)-2-fluoro-pyridin-3-yl]-methanone] | 5 to 10 µM | –
Fc1nc(NC2CCC(F)(F)CC2)ccc1Cc1c[nH]c2ncnc(NCC(F)(F)F)c12 [Compound P-4128, 5-[[6-[(4,4-difluorocyclohexyl)amino]-2-fluoro-3-pyridyl]methyl]-N-(2,2,2-trifluoroethyl)-7H-pyrrolo[2,3-d]pyrimidin-4-amine] | > 10 µM | –
Fc1nc(NC2CCC(F)(F)CC2)ccc1Cc1c[nH]c2ncnc(NC3CC3)c12 [Compound P-4129, N-cyclopropyl-5-[[6-[(4,4-difluorocyclohexyl)amino]-2-fluoro-3-pyridyl]methyl]-7H-pyrrolo[2,3-d]pyrimidin-4-amine] | < 5 µM | –

Second part, the compound after the results:

IC50 (CYP3A4(BQ)) | IC50 (MV-4-11 cells) | SMILES
> 10 µM | < 10 µM | FC1(F)CCC(Nc2ncc(Cc3c[nH]c4ncc(Cl)cc34)cn2)CC1 [Compound P-3004]
> 10 µM | < 0.01 µM | Cc1cnc2[nH]cc(Cc3cnc(Nc4ccc(C(F)(F)F)nc4)nc3)c2c1 [Compound P-3018, [5-(5-Methyl-1H-pyrrolo[2,3-b]pyridin-3-ylmethyl)-pyrimidin-2-yl]-(6-trifluoromethyl-pyridin-3-yl)-amine]
> 10 µM | < 1 µM | COc1ccc(Nc2ccc(Cc3c[nH]c4ncc(C)cc34)c(F)n2)cn1 [Compound P-3019, [6-fluoro-5-(5-methyl-1H-pyrrolo[2,3-b]pyridin-3-ylmethyl)-pyridin-2-yl]-(6-methoxy-pyridin-3-yl)-amine]
– | < 0.1 µM | COc1ccc(Nc2ncc(Cc3c[nH]c4ncc(C)cc34)cn2)cn1 [Compound P-3020, (6-Methoxy-pyridin-3-yl)-[5-(5-methyl-1H-pyrrolo[2,3-b]pyridin-3-ylmethyl)-pyrimidin-2-yl]-amine]
– | < 1 µM | COc1cc(Nc2ncc(Cc3c[nH]c4ncc(C)cc34)cn2)ccc1F [Compound P-3022, (4-Fluoro-3-methoxy-phenyl)-[5-(5-methyl-1H-pyrrolo[2,3-b]pyridin-3-ylmethyl)-pyrimidin-2-yl]-amine]
– | < 0.1 µM | COc1ccc(Nc2ncc(Cc3c[nH]c4ncc(C)cc34)cn2)cc1F [Compound P-3023, (3-Fluoro-4-methoxy-phenyl)-[5-(5-methyl-1H-pyrrolo[2,3-b]pyridin-3-ylmethyl)-pyrimidin-2-yl]-amine]
– | < 0.01 µM | CCOc1ccc(Nc2ncc(Cc3c[nH]c4ncc(C)cc34)cn2)cn1 [Compound P-3027, (6-Ethoxy-pyridin-3-yl)-[5-(5-methyl-1H-pyrrolo[2,3-b]pyridin-3-ylmethyl)-pyrimidin-2-yl]-amine]
– | < 1 µM | CCn1ccc(Nc2ncc(Cc3c[nH]c4ncc(C)cc34)cn2)n1 [Compound P-3035, (1-Ethyl-1H-pyrazol-3-yl)-[5-(5-methyl-1H-pyrrolo[2,3-b]pyridin-3-ylmethyl)-pyrimidin-2-yl]-amine]
– | < 0.1 µM | CCn1cc(Nc2ncc(Cc3c[nH]c4ncc(C)cc34)cn2)cn1 [Compound P-3036, (1-Ethyl-1H-pyrazol-4-yl)-[5-(5-methyl-1H-pyrrolo[2,3-b]pyridin-3-ylmethyl)-pyrimidin-2-yl]-amine]
– | > 1 µM | Cc1cnc2[nH]cc(Cc3cnc(Nc4cc(OC(C)C)n[nH]4)nc3)c2c1 [Compound P-3038, (5-Isopropoxy-2H-pyrazol-3-yl)-[5-(5-methyl-1H-pyrrolo[2,3-b]pyridin-3-ylmethyl)-pyrimidin-2-yl]-amine]
– | < 1 µM | CCOc1ccc(Nc2ccc(Cc3c[nH]c4ncc(C)cc34)c(F)n2)cn1 [Compound P-3039, (6-ethoxy-pyridin-3-yl)-[6-fluoro-5-(5-methyl-1H-pyrrolo[2,3-b]pyridin-3-ylmethyl)-pyridin-2-yl]-amine]
> 10 µM | < 1 µM | COc1ncnc2[nH]cc(Cc3ccc(Nc4ccc(Cl)nc4)nc3F)c12 [Compound P-4003, (6-Chloro-pyridin-3-yl)-[6-fluoro-5-(4-methoxy-7H-pyrrolo[2,3-d]pyrimidin-5-ylmethyl)-pyridin-2-yl]-amine]
> 10 µM | – | Cc1ccc(Nc2ccc(Cc3c[nH]c4ncnc(C5CC5)c34)c(F)n2)cn1 [Compound P-4030, [5-(4-Cyclopropyl-7H-pyrrolo[2,3-d]pyrimidin-5-ylmethyl)-6-fluoro-pyridin-2-yl]-(6-methyl-pyridin-3-yl)-amine]
> 10 µM | – | Fc1nc(Nc2ccc(C3CC3)nc2)ccc1Cc1c[nH]c2ncnc(NCC(F)(F)F)c12 [Compound P-4130, 5-[[6-[(6-cyclopropyl-3-pyridyl)amino]-2-fluoro-3-pyridyl]methyl]-N-(2,2,2-trifluoroethyl)-7H-pyrrolo[2,3-d]pyrimidin-4-amine]
